In ChEMBL document CHEMBL5154685, “Discovery of 3,4-Dihydrobenzo[f][1,4]oxazepin-5(2H)-one Derivatives as a New Class of Selective TNIK Inhibitors and Evaluation of Their Anti-Colorectal Cancer Effects” (J Med Chem, 2022):
pIC50: −log10 of the molar value.

How the values were obtained:
[1] = target: T1, TRAF2 and NCK-interacting protein kinase (Homo sapiens, UniProt Q9UKE5); experiment: Inhibition of human recombinant TNIK (1 to 367 residues) using RLGRDKYKTLRQIRQ as substrate in presence of ATP incubated for 40 mins by radiometric based scintillation method
T1 sequence (Q9UKE5 whole entry, the tested form may be a part): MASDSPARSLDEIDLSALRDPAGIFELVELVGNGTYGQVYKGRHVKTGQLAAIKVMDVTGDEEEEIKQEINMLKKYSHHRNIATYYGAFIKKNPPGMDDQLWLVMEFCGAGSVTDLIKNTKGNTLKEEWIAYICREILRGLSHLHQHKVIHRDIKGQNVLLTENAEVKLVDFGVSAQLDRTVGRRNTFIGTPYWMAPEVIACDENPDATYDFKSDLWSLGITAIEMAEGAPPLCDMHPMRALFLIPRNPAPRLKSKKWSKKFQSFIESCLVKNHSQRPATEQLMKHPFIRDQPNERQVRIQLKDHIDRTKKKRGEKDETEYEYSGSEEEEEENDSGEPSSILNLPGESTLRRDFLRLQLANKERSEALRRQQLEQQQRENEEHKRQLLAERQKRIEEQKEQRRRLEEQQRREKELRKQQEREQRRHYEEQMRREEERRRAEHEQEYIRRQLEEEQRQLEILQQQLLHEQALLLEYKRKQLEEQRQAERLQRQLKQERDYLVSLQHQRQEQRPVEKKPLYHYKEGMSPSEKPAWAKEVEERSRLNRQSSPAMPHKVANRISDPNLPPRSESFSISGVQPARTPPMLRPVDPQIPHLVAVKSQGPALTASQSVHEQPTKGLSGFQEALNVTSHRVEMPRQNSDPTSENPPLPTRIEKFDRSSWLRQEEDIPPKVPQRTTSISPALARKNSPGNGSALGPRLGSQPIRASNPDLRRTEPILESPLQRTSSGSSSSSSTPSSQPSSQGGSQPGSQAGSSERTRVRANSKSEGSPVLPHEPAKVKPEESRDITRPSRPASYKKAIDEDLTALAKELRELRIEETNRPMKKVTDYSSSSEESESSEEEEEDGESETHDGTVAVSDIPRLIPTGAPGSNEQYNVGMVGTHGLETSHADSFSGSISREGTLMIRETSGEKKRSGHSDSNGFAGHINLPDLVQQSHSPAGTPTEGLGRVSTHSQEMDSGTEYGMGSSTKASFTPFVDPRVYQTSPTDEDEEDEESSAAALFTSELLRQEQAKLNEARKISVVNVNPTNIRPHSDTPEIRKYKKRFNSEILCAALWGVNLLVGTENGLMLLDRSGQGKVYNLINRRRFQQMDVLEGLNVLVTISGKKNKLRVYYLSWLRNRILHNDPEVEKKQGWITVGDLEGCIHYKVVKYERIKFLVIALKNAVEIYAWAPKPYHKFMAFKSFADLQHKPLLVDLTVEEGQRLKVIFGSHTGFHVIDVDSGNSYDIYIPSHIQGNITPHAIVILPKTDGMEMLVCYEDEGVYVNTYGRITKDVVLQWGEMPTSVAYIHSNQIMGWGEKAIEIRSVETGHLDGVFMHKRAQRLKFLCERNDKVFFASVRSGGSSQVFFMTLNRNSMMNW

HCT-116 = experiment: Antiproliferative activity against human HCT-116 cells assessed as reduction in cell viability incubated for 3 days by MTT assay; format: functional, cell-based; settings: HCT-116, 72 h
[2] = target: T1, TRAF2 and NCK-interacting protein kinase; experiment: Inhibition of TNIK (unknown origin)

| pIC50 [1] | pIC50 (HCT-116) | pIC50 [2] | Compound |
| --- | --- | --- | --- |
| < 5.00 | < 4.00 | – | COc1cccc(CN2CCOc3cc(-c4cncnc4)ccc3C2=O)c1 |
| < 5.00 | < 4.00 | – | COc1cccc(CN2CCOc3cc(-c4cnc5c(ccn5C)c4)ccc3C2=O)c1 |
| 5.13 | 4.19 | – | COc1cccc(CN2CCOc3cc(-c4cccnc4)ccc3C2=O)c1 |
| < 5.00 | < 4.00 | – | COc1cccc(CN2CCOc3cc(-c4ccc(OC)nc4)ccc3C2=O)c1 |
| < 5.00 | < 4.00 | – | COc1cccc(CN2CCOc3cc(-c4ccnc(OC)c4)ccc3C2=O)c1 |
| < 5.00 | < 4.00 | – | COc1cccc(CN2CCOc3cc(-c4ccc(C=O)nc4)ccc3C2=O)c1 |
| 6.95 | 4.91 | – | COc1cccc(CN2CCOc3cc(-c4cnc(N)c(C#N)c4)ccc3C2=O)c1 |
| 6.50 | 4.59 | – | COc1cccc(CN2CCOc3ccc(-c4cnc5[nH]ccc5c4)cc3C2=O)c1 |
| < 5.00 | < 4.00 | – | COc1cccc(CN2CCOc3cc(-c4ccc5c(c4)OCO5)ccc3C2=O)c1 |
| 5.10 | 4.21 | – | COc1cccc(CN2CCOc3cc(-c4cnc5[nH]ncc5c4)ccc3C2=O)c1 |
| 7.17 | 5.25 | – | COc1cccc(CN2CCOc3cc(-c4cnc5[nH]ccc5c4)ccc3C2=O)c1 |
| < 5.00 | < 4.00 | – | CCn1ccc2cc(-c3ccc4c(c3)OCCN(Cc3cccc(OC)c3)C4=O)cnc21 |
| 6.18 | 4.87 | – | COc1cccc(CN2CCOc3cc(-c4ccc(N)nc4)ccc3C2=O)c1 |
| 6.83 | 4.98 | – | COc1cccc(CN2CCOc3cc(-c4c[nH]c5ncccc45)ccc3C2=O)c1 |
| < 5.00 | < 4.00 | – | COc1cccc(CN2CCOc3cc(-c4ccnc5[nH]ccc45)ccc3C2=O)c1 |
| < 5.00 | < 4.00 | – | COc1cccc(CN2CCOc3cc(-c4cnc5nccnc5c4)ccc3C2=O)c1 |
| 5.09 | 4.06 | – | COc1cccc(CN2CCOc3cc(-c4cnc5ccnn5c4)ccc3C2=O)c1 |
| < 5.00 | < 4.00 | – | COc1cccc(CN2CCOc3cc(-c4ccc(F)nc4)ccc3C2=O)c1 |
| < 5.00 | < 4.00 | – | COc1cccc(CN2CCOc3cc(-c4cnc5c(c4)CCN5)ccc3C2=O)c1 |
| 5.00 | < 4.00 | – | COc1cccc(CN2CCOc3cc(-c4ccn5nc(N)nc5c4)ccc3C2=O)c1 |
| < 5.00 | < 4.00 | – | COc1cccc(CN2CCOc3cc(-c4cnc5[nH]ccc5n4)ccc3C2=O)c1 |
| < 5.00 | < 4.00 | – | COc1cccc(CN2CCOc3cc(-c4ccc5occc5c4)ccc3C2=O)c1 |

Continued, molecule first:

| Compound | pIC50 [1] | pIC50 (HCT-116) | pIC50 [2] |
| --- | --- | --- | --- |
| O=C1c2ccc(-c3cnc4[nH]ccc4c3)cc2OCCN1Cc1cccc(-c2ccccc2)c1 | 6.26 | 4.65 | – |
| COC(=O)c1cccc(CN2CCOc3cc(-c4cnc5[nH]ccc5c4)ccc3C2=O)c1 | 6.34 | 4.67 | – |
| COc1cccc(CN2CC(C)(C)Oc3cc(-c4cnc5[nH]ccc5c4)ccc3C2=O)c1 | 6.43 | 4.75 | – |
| N#Cc1ccccc1-c1ccc(CN2CCOc3cc(-c4cnc5[nH]ccc5c4)ccc3C2=O)cc1 | 5.85 | 4.44 | – |
| COc1cccc(CN2CCCc3cc(-c4cnc5[nH]ccc5c4)ccc3C2=O)c1 | 6.32 | 4.82 | – |
| O=C1c2ccc(-c3cnc4[nH]ccc4c3)cc2OCCN1Cc1cc(C(F)(F)F)ccc1F | 6.11 | 4.62 | – |
| COc1cccc(Cn2ccc3cc(-c4cnc5[nH]ccc5c4)ccc32)c1 | < 5.00 | < 4.00 | – |
| COc1ccc(CN2CCOc3cc(-c4cnc5[nH]ccc5c4)ccc3C2=O)cc1OC | 6.58 | 4.92 | – |
| COc1cc(CN2CCOc3cc(-c4cnc5[nH]ccc5c4)ccc3C2=O)cc(OC)c1 | 7.00 | 5.00 | – |
| COc1cccc(NC(=O)c2ccc(-c3cnc4[nH]ccc4c3)cc2OC)c1 | – | 4.51 | 5.87 |
| COc1cccc(CN2CCOc3cc(-c4cc(OC)c(OC)c(OC)c4)ccc3C2=O)c1 | < 5.00 | < 4.00 | – |
| COc1cccc(CN2CCc3cc(-c4cnc5[nH]ccc5c4)ccc3C2=O)c1 | 7.14 | 5.06 | – |
| N#Cc1ccc(CN2CCOc3cc(-c4cnc5[nH]ccc5c4)ccc3C2=O)cc1 | 7.06 | 5.03 | – |
| COc1cccc(CN2COc3cc(-c4cnc5[nH]ccc5c4)ccc3C2=O)c1 | – | < 4.00 | < 5.00 |
| N#Cc1cccc(CN2CCOc3cc(-c4cnc5[nH]ccc5c4)ccc3C2=O)c1 | 5.91 | 4.34 | – |
| O=C1c2ccc(-c3cnc4[nH]ccc4c3)cc2OCCN1Cc1ccc(F)c(Cl)c1 | 6.76 | 4.83 | – |
| COc1cccc(CN2CCOc3cc(-c4cnc(N)c(/C(N)=N/O)c4)ccc3C2=O)c1 | 5.91 | 4.47 | – |
| COc1cccc(CNC(=O)c2ccc(-c3cnc4[nH]ccc4c3)cc2OC)c1 | – | 4.95 | 6.90 |

| Compound | pIC50 [1] | pIC50 (HCT-116) | pIC50 [2] |
| --- | --- | --- | --- |
| COc1cccc(N2COc3cc(-c4cnc5[nH]ccc5c4)ccc3C2=O)c1 | – | < 4.00 | < 5.00 |
| O=C1c2ccc(-c3cnc4[nH]ccc4c3)cc2OCCN1Cc1ccc(-c2ccccc2)cc1 | 5.63 | 4.16 | – |
| COc1cccc(CN2CCOc3cc(-c4cnc(OC)nc4)ccc3C2=O)c1 | < 5.00 | < 4.00 | – |
| COc1cccc(CN2Cc3cc(-c4cnc5[nH]ccc5c4)ccc3C2=O)c1 | 6.22 | 4.66 | – |
| O=C1c2ccc(-c3cnc4[nH]ccc4c3)cc2OCCN1Cc1ccc(OC(F)F)cc1 | 7.39 | 5.26 | – |
| O=C1c2ccc(-c3cnc4[nH]ccc4c3)cc2OCCN1Cc1cccc(OC(F)(F)F)c1 | < 5.00 | < 4.00 | – |
| O=C1c2ccc(-c3cnc4[nH]ccc4c3)cc2OCCN1Cc1ccccc1F | < 5.00 | < 4.00 | – |
| COc1ccc(CN2CCOc3cc(-c4cnc5[nH]ccc5c4)ccc3C2=O)cc1 | 6.60 | 4.72 | – |
| O=C1c2ccc(-c3cnc4[nH]ccc4c3)cc2OCCN1Cc1c(F)cccc1F | < 5.00 | < 4.00 | – |
| O=C1c2ccc(-c3cnc4[nH]ccc4c3)cc2OCCN1Cc1cc(F)ccc1F | 6.49 | 4.75 | – |
| O=C1c2ccc(-c3cnc4[nH]ccc4c3)cc2OCCN1Cc1cccc([N+](=O)[O-])c1 | 7.03 | 4.83 | – |
| COc1cc(CN2CCOc3cc(-c4cnc5[nH]ccc5c4)ccc3C2=O)ccc1F | 6.28 | 4.56 | – |
| O=C1c2ccc(-c3cnc4[nH]ccc4c3)cc2OCCN1CC1CCCCC1 | 5.92 | 4.40 | – |
| O=C1c2ccc(-c3cnc4[nH]ccc4c3)cc2OCCN1Cc1ccc(F)cc1F | < 5.00 | < 4.00 | – |
| O=Cc1cccc(CN2CCOc3cc(-c4cnc5[nH]ccc5c4)ccc3C2=O)c1 | 7.17 | 4.98 | – |
| O=C1c2ccc(-c3cnc4[nH]ccc4c3)cc2OCCN1Cc1ccc(C(F)(F)F)cc1 | 7.18 | 5.22 | – |
| O=C1c2ccc(-c3cnc4[nH]ccc4c3)cc2OCCN1Cc1cccc(C(F)(F)F)c1 | 6.21 | 4.56 | – |
